Experimental data as given in PubChem BioAssay AID504702 (Southern Research Specialized Biocontainment Screening …, 2011).
Values joined by “and” are separate entries in the source; they are usually repeats but may differ in a detail not shown here. Equal entries are not always repeated. Active and inactive are the calls of the source. How the calls were made is not given here.

Key:
[1] = M. tuberculosis growth inhibition with meropenem, dose response, H37Rv, set 2 (AID 504702);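 further: growth read by Alamar Blue after 7 days plus overnight incubation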; details: M. tuberculosis H37Rv with meropenem, growth inhibition
[2] = tested on: M. tuberculosis H37Rv with meropenem, growth inhibition; test: as above; details: for IC90: measured here: IC90 growth with meropenem

| SMILES | growth inhibition ([1]; at 25 µM (top of the series)) | IC50 [2] | IC90 [2] | growth inhibition ([1]; at 18.8 µM (top of the series)) |
| --- | --- | --- | --- | --- |
| COC(=O)c1ccc2nc(NC(=O)COc3ccccc3)sc2c1 | 15.1% (inactive) | – | – | – |
| CCCN1CC(O)=C(c2nc3ccccc3s2)C1=N | 1.43% (inactive) | – | – | – |
| CC(=O)c1c(C)n(-c2ccccc2C)c2ccc(O)cc12 | -1.1% (inactive) | – | – | – |
| CCOc1ccc2c(c1)c(C(C)=O)c(C)n2-c1ccccc1 | – | 0.66 µM and 0.52 µM | > 18.8 µM and 2.79 µM | – |
| O=C(Nc1ccccc1)Nc1csc2ccccc12 | – | 0.49 µM and 0.2 µM | > 25 µM | – |
| Oc1ccc2[nH]ccc2c1 | 3.81% (inactive) | – | – | – |
| O=C(Nc1nc2ccccc2[nH]1)c1ccc(Cl)c(Cl)c1 | – | 0.81 µM | > 25 µM | – |
| CCOc1ccc2nc(NC(=O)Cc3ccc(OC)cc3)sc2c1 | -9.77% (inactive) | – | – | – |
| Cc1c(OCc2ccc(C(=O)O)cc2)ccc2c(-c3ccccc3)cc(=O)oc12 | – | 3.3 µM and 3.99 µM | > 25 µM | – |
| Cc1ccc(OCC(=O)Nc2cccc3ncccc23)c(C)c1 | 1.76% (inactive) | – | – | – |
| Cc1ccc(OCC(=O)Nc2cccc3c(NC(=O)COc4ccc(C)cc4C)cccc23)c(C)c1 | -7.16% (inactive) | – | – | – |
| CCOc1ccc2c(c1)cc(C)n2-c1ccccc1 | – | 11.5 µM | > 25 µM | – |
| N/C(=N\c1nc2ccccc2o1)NC(=O)c1ccc(F)cc1 | – | 9.64 µM | > 25 µM | – |
| O=C(Nc1nc2ccccc2[nH]1)c1cc2cc(Br)ccc2o1 | -2.41% (inactive) | – | – | – |
| N/C(=N\c1nc2cc(Cl)ccc2o1)NC(=O)c1ccccc1 | -0.66% (inactive) | – | – | – |
| N/C(=N\c1nc2ccccc2o1)NC(=O)COc1ccc2ccccc2c1 | -2.85% (inactive) | – | – | – |
| COc1cccc(NC(=S)Nc2cc(C)cc(C)n2)c1 | – | 7.2 µM | > 25 µM | – |
| CCOc1ccc2nc(NC(=O)COc3ccc(F)cc3)sc2c1 | -3.93% (inactive) | – | – | – |
| O=C(COc1ccccc1)Nc1nc2ccccc2s1 | -1.01% (inactive) | – | – | – |
| Cc1ccc(C(C)C)c(OCC(=O)Nc2nc3ccccc3s2)c1 | -4.96% (inactive) | – | – | – |
| Cc1ccccc1C(=O)Nc1nc2ccccc2[nH]1 | – | 8.75 µM | > 25 µM | – |
| CCCOc1ccc2c(c1)c(C(C)=O)c(C)n2-c1ccccc1 | 20.4% (inactive) | – | – | – |
| Cc1onc(-c2c(Cl)cccc2Cl)c1/C(N)=N/OC(=O)C1CC1 | – | 1.47 µM | > 25 µM | – |
| COc1ccc2c(c1)c(C(C)=O)c(C)n2-c1ccccc1 | – | 0.53 µM and 1.3 µM | > 18.8 µM | – |

| SMILES | growth inhibition ([1]; at 25 µM (top of the series)) | IC50 [2] | IC90 [2] | growth inhibition ([1]; at 18.8 µM (top of the series)) |
| --- | --- | --- | --- | --- |
| CC(=O)c1c(C)n(-c2ccccc2)c2ccc(O)cc12 | – | 20.1 µM | > 25 µM | – |
| CCOc1ccc2c(c1)c(CC)c(C)n2-c1ccccc1 | – | 4.42 µM | > 25 µM | – |
| N/C(=N\c1nc2ccccc2o1)NC(=O)c1ccccc1F | -5.8% (inactive) | – | – | – |
| O=C(CC12CC3CC(CC(C3)C1)C2)NCc1ccc(F)cc1 | -0.41% (inactive) | – | – | -0.16% (inactive) |
| N/C(=N\c1nc2ccccc2o1)NC(=O)c1ccccc1 | 2.3% (inactive) | – | – | – |
| CN(NC(=O)c1c(Cl)cccc1Cl)c1cccc(Cl)n1 | – | 15.5 µM | > 25 µM | – |
| CCOc1ccc2[nH]c(C)cc2c1 | -0.67% (inactive) | – | – | – |
| OCCCc1cn(-c2ccccc2)c2ccccc12 | – | 14.2 µM | > 25 µM | – |
| c1ccc(Nc2ncnc3c2oc2ccccc23)cc1 | – | 5.29 µM | > 25 µM | – |
| CCOc1ccc2c(c1)c(C(C)=O)c(C)n2-c1ccccc1C | – | 3.43 µM | 12.1 µM | – |
| Cc1ccc2sc(NC(=O)COc3ccccc3)nc2c1C | 14.4% (inactive) | – | – | – |
| COc1ccc2nc(NC(=O)c3oc4ccccc4c3C)sc2c1 | -4.34% (inactive) | – | – | – |
| N/C(=N\c1nc2ccccc2o1)NC(=O)c1ccccc1Br | – | 3.04 µM | > 25 µM | – |
| CCOc1ccc2c(c1)c(C(C)=O)c(C)n2Cc1ccco1 | -2.87% (inactive) | – | – | – |
| c1ccc(OCc2nnc(-c3ccccc3)o2)cc1 | – | 15 µM and 5.67 µM | > 25 µM | – |
| O=C(OC(C(=O)Nc1ccc(Cl)cc1C(F)(F)F)c1ccccc1)C1=COCCO1 (configuration not stated) | – | 3.17 µM | > 25 µM | – |
| CC(=O)c1c(C)n(-c2ccccc2)c2ccc(OS(=O)(=O)C(F)(F)F)cc12 | – | – | > 25 µM | – |
| CC(=O)c1c(C)n(-c2ccccc2)c2ccccc12 | – | 11.6 µM | > 25 µM | – |
| COc1ccc2oc(C(=O)Nc3nc4ccccc4[nH]3)c(C)c2c1 | – | – | > 25 µM | – |
| O=C(COC(=O)C1=COCCO1)Nc1ccc2c(c1)OCO2 | – | 9.76 µM | > 25 µM | – |
| CCOc1ccc2c(c1)c(C(C)=O)c(C)n2-c1cccc(Cl)c1 | – | 10.5 µM | > 25 µM | – |
| COC(=O)c1c(C)n(-c2ccccc2)c2ccc(O)cc12 | – | 8.43 µM | > 18.8 µM | – |
| Cc1ccccc1OCC(=O)Nc1ccccc1N1CCCCC1 | – | 6.13 µM and 8.97 µM | > 25 µM | – |
